Holding throughout (type): cell-based
Assay [1] relates to Pseudomonas aeruginosa cystic fibrosis isolate 3317. The experiment in a line: MIC vs cystic fibrosis isolate of P. aeruginosa 3317 (resistant to aztreonam). The settings on record: strain 3317, Aztr. R, LpxC inhibitors, MIC key class. Here is the method: (§1) Bacterial isolates were cultivated from −70° C. frozen stocks by two consecutive overnight passages at 35° C. in ambient air on 5% blood agar (Remel, Lenexa, Kans.). Clinical isolates tested were from a collection composed of isolates collected during clinical trials and recent clinical isolates obtained from various geographically diverse hospitals in the US. Quality control and primary panel strains were from the American Type Culture Collection (ATCC; Rockville, Md.), with the exception of P. aeruginosa PAO200, a strain with a deletion of the mexABoprM genes that was received from Dr. H. Schweizer.
(§2) Minimum Inhibitory Concentrations (MICs) were determined by the broth microdilution method in accordance with the National Committee for Clinical Laboratory Standards (NCCLS) guidelines. In brief, organism suspensions were are adjusted to a 0.5 McFarland standard to yield a final inoculum between 3×10^5 and 7×10^5 colony-forming units (CFU)/mL. Drug dilutions and inocula were made in sterile, cation adjusted Mueller-Hinton Broth (Remel). An inoculum volume of 100 μl was added to wells containing 100 μl of broth with 2-fold serial dilutions of drug. All inoculated microdilution trays were incubated in ambient air at 35° C. for 18-24 hours. Following incubation, the lowest concentration of the drug that prevented visible growth was recorded as the MIC.

The test system of assay [2] is Pseudomonas aeruginosa cystic fibrosis isolate 3206. The experiment in a line: microbe, parasite or virus in culture. The method, then: as §1, §2
Assay [3] has as its system Pseudomonas aeruginosa cystic fibrosis isolate 1145. Description: microbe, parasite or virus in culture. The method, then: as §1, §2
Assay [4] deals with Stenotrophomonas maltophilia. The experiment in a line: MIC vs non-fermenting organisms: Stenotrophomonas maltophilia. Particulars: Stenotrophomonas maltophilia, S. malt.; MIC key class; read-out: MIC. The method, then: as §1, §2
The subject of assay [5] is Pseudomonas aeruginosa cystic fibrosis isolate 3232. Description: MIC vs cystic fibrosis isolate of P. aeruginosa 3232 (Ceftaz. R). Particulars: strain 3232, Ceftaz. R, LpxC inhibitors, MIC key class.
For assay [6], the system named is Pseudomonas aeruginosa cystic fibrosis isolate 3224. The experiment in a line: MIC vs cystic fibrosis isolate of P. aeruginosa 3224. Particulars: strain 3224, Tobra R, LpxC inhibitors, MIC key class. The method, then: as §1, §2
The next assay deals with S. aureus 29213. The experiment in a line: MIC broth microdilution, standard panel: S. aureus 29213. Particulars: Staphylococcus aureus, standard panel of organisms. The method, then:
as §1, with “Schweizer. […] Strain Z61 (ATCC 35151) is also hypersusceptible to antibacterials. It is thought that the hypersusceptibility of this strain is the result of increased permeability of its outer membrane (Angus B L et al, Antimicrobial Agents and Chemotherapy 1982 21,299-309: Outer membrane permeability in Pseudomonas aeruginosa: Comparison of a wild-type with an antibacterial-supersusceptible mutant).” for “Schweizer.”
as §2, with “MIC. Performance of the assay was monitored by the use of laboratory quality-control strains against tobramycin, that has a defined MIC spectrum, in accordance with NCCLS guidelines.” for “MIC.”
A general note: Dilution methods test growth across graded concentrations, often in twofold steps.

A further assay relates to Serratia marcescens. Description: MIC vs enteric organisms: Serratia marcescens. The settings on record: S. marc., MIC key class. The method, then:
as §1, §2

Assay [7] concerns Pseudomonas aeruginosa cystic fibrosis isolate 3198. The experiment in a line: MIC vs cystic fibrosis isolate of P. aeruginosa 3198 (sensitive to most antibacterials). The settings on record: strain 3198, Sensitive, LpxC inhibitors, MIC key class. Here is the method:
as §1, §2

The next assay has as its system Enterobacter cloacae. Description: MIC vs enteric organisms: Enterobacter cloacae. The settings on record: E. clo., MIC key class. The method, then: as §1, §2
The subject of another assay is Alcaligenes xylosoxidans. The experiment in a line: MIC vs non-fermenting organisms: Alcaligenes xylosoxidans. The settings on record: Achromobacter xylosoxidans; Alcal. xyl; MIC key class. Here is the method: as §1, §2
The mark [8] stands for this setting: strain 3206, MDR, LpxC inhibitors, MIC key class, read-out: MIC.
Where [9] appears, read: strain 1145, MDR, LpxC inhibitors, MIC key class, read-out: MIC.

≈ marks a conversion by molar mass, not a printed value. Read-outs that look alike come from different tables or passages of the source. A value given as a limit tells only on which side of the number the result lay.

Consider `C[C@@H](O)[C@H](NC(=O)c1ccc(C#Cc2ccccc2)cc1)C(=O)NO` [Example 12, N-(1-(N-hydroxycarbamoyl)(1S,2R)-2-hydroxypropyl)[4-(2-phenylethynyl)phenyl]carboxamide], for which the MIC in [1], in [2], in [3], in [4], in assay [5] and in assay [6] was below 6.25 µg/mL each time. Besides, the MIC against S. aureus 29213 was above 50 µg/mL; in the assay on Serratia marcescens, below 6.25 µg/mL; in assay [7], below 6.25 µg/mL; in the assay on Enterobacter cloacae, below 6.25 µg/mL; in the assay with Alcaligenes xylosoxidans it was below 6.25 µg/mL.

As for `C[C@@H](N)[C@H](NC(=O)c1ccc(C#Cc2ccccc2)cc1)C(=O)NO` [Example 13], the MIC in assay [1] is below 6.25 µg/mL; in assay [2] (setting [8]), below 6.25 µg/mL; in assay [3] (setting [9]) it was below 6.25 µg/mL; in assay [4], 6.25 to 50 µg/mL (≈ 18.5 to 148 µM); in assay [5], below 6.25 µg/mL; in assay [6], below 6.25 µg/mL. Moreover, the MIC against S. aureus 29213 is above 50 µg/mL; with Serratia marcescens it was below 6.25 µg/mL; in assay [7], below 6.25 µg/mL; in the assay with Enterobacter cloacae it was below 6.25 µg/mL; in the assay with Alcaligenes xylosoxidans, below 6.25 µg/mL.

On to `CCc1ccc(-c2ccc(C(=O)N[C@H](C(=O)NO)[C@@H](C)N)cc2)cc1` [Example 779, N-{(1S,2R)-2-amino-1-[(hydroxyamino)carbonyl]propyl)-4′-ethyl-1,1′-biphenyl-4-carboxamide], for which the MIC in assay [1] was below 6.25 µg/mL; in [2] (setting [8]), below 6.25 µg/mL; in [3] (setting [9]) it was below 6.25 µg/mL; in assay [4], 6.25 to 50 µg/mL (≈ 18.3 to 146 µM); in assay [5], below 6.25 µg/mL; in assay [6] it was below 6.25 µg/mL. The MIC in the assay on S. aureus 29213 is above 50 µg/mL; in the assay with Serratia marcescens it was below 6.25 µg/mL; in [7], below 6.25 µg/mL; against Enterobacter cloacae, below 6.25 µg/mL; in the assay with Alcaligenes xylosoxidans, below 6.25 µg/mL.

Take `NC[C@H](NC(=O)c1ccc(C#Cc2ccc(NC(=O)CNC3CC3)cc2)cc1)C(=O)NO` [Example 516, N-[(1S)-1-(aminomethyl)-2-(hydroxyamino)-2-oxoethyl]-4-[(4-{[(cyclopropylamino)acetyl]amino}phenyl)ethynyl]benzamide]: the MIC in assay [1] was below 6.25 µg/mL; in [2] (setting [8]), below 6.25 µg/mL; in [3] (setting [9]), below 6.25 µg/mL; in assay [4] it was above 50 µg/mL; in assay [5], below 6.25 µg/mL; in assay [6] it was below 6.25 µg/mL. The MIC against S. aureus 29213 is above 50 µg/mL; in the assay with Serratia marcescens it was below 6.25 µg/mL; in assay [7] it was below 6.25 µg/mL; with Enterobacter cloacae it was 6.25 to 50 µg/mL (≈ 14.4 to 115 µM); with Alcaligenes xylosoxidans it was above 50 µg/mL.

In the case of `C[C@@H](O)[C@H](NC(=O)c1ccc(C#CC#Cc2ccccc2)cc1)C(=O)NO` [Example 19, N-(1-(N-hydroxycarbamoyl)(1S,2R)-2-hydroxypropyl)[4-(4-phenylbuta-1,3-diynyl)phenyl]carboxamide], the MIC in assay [1] was below 6.25 µg/mL; in [2] (setting [8]), below 6.25 µg/mL; in assay [3] (setting [9]), below 6.25 µg/mL; in assay [4] it was 6.25 to 50 µg/mL (≈ 17.2 to 138 µM); in [5], below 6.25 µg/mL; in [6], below 6.25 µg/mL. Moreover, the MIC was 6.25 to 50 µg/mL (≈ 17.2 to 138 µM) against S. aureus 29213; below 6.25 µg/mL in the assay on Serratia marcescens; below 6.25 µg/mL in assay [7]; below 6.25 µg/mL in the assay on Enterobacter cloacae; 6.25 to 50 µg/mL (≈ 17.2 to 138 µM) in the assay on Alcaligenes xylosoxidans.

Take `NC[C@H](NC(=O)c1ccc(C#CC#Cc2ccccc2)cc1)C(=O)NO` [Example 481, N-[(1S)-1-(aminomethyl)-2-(hydroxyamino)-2-oxoethyl]-4-(4-phenylbuta-1,3-diynyl)benzamide]: the MIC was below 6.25 µg/mL in assay [1]; below 6.25 µg/mL in [2] (setting [8]); below 6.25 µg/mL in assay [3] (setting [9]); above 50 µg/mL in assay [4]; below 6.25 µg/mL in [5]; below 6.25 µg/mL in [6]. The MIC was above 50 µg/mL in the assay with S. aureus 29213; below 6.25 µg/mL against Serratia marcescens; below 6.25 µg/mL in [7]; below 6.25 µg/mL in the assay with Enterobacter cloacae; above 50 µg/mL against Alcaligenes xylosoxidans.

Regarding `C[C@@H](O)[C@H](NC(=O)c1ccc(-c2ccc(Br)cc2)cc1)C(=O)NO` [Example 315, 4′-bromo-N-{(1S,2R)-2-hydroxy-1-[(hydroxyamino)carbonyl]propyl}-1,1′-biphenyl-4-carboxamide], the MIC in assay [1], in assay [2] (setting [8]), in assay [3] (setting [9]), in [4], in assay [5] and in assay [6] was below 6.25 µg/mL each time. Moreover, the MIC is above 50 µg/mL against S. aureus 29213; 6.25 to 50 µg/mL (≈ 15.9 to 127 µM) against Serratia marcescens; below 6.25 µg/mL in [7]; below 6.25 µg/mL against Enterobacter cloacae; 6.25 to 50 µg/mL (≈ 15.9 to 127 µM) in the assay with Alcaligenes xylosoxidans.

Consider `C[C@@H](O)[C@H](NC(=O)c1ccc(C#CC#Cc2ccc(NC(=O)CNc3ccccc3)cc2)cc1)C(=O)NO` [Example 777, N-{(1S,2R)-2-hydroxy-1-[(hydroxyamino)carbonyl]propyl}-4-[4-(4-{[(phenylamino)acetyl]amino}phenyl)buta-1,3-diynyl]benzamide], for which the MIC is below 6.25 µg/mL in assay [1]; below 6.25 µg/mL in assay [2] (setting [8]); below 6.25 µg/mL in [3] (setting [9]); above 50 µg/mL in [4]; below 6.25 µg/mL in [5]; below 6.25 µg/mL in assay [6]. The MIC is above 50 µg/mL in the assay with S. aureus 29213; below 6.25 µg/mL in the assay with Serratia marcescens; below 6.25 µg/mL in assay [7]; below 6.25 µg/mL in the assay on Enterobacter cloacae; 6.25 to 50 µg/mL (≈ 12.2 to 97.9 µM) against Alcaligenes xylosoxidans.

On to `C[C@@H](O)[C@H](NC(=O)c1ccc(C#CC#Cc2ccc(NC(=O)CNc3ccccn3)cc2)cc1)C(=O)NO` [Example 801, N-{(1S,2R)-2-hydroxy-1-[(hydroxyamino)carbonyl]propyl}-4-[4-(4-{[(pyridin-2-ylamino)acetyl]amino}phenyl)buta-1,3-diynyl]benzamide], for which the MIC in [1] is below 6.25 µg/mL; in assay [2] (setting [8]), below 6.25 µg/mL; in [3] (setting [9]) it was below 6.25 µg/mL; in assay [4], above 50 µg/mL; in assay [5], below 6.25 µg/mL; in [6] it was below 6.25 µg/mL. Also, the MIC in the assay with S. aureus 29213 is above 50 µg/mL; against Serratia marcescens, below 6.25 µg/mL; in [7], below 6.25 µg/mL; in the assay with Enterobacter cloacae, below 6.25 µg/mL; against Alcaligenes xylosoxidans, above 50 µg/mL.

For the compound `CCc1ccc(-c2ccc(C(=O)N[C@@H](CN)C(=O)NO)cc2)cc1` [Example 280, N-[(1S)-1-(aminomethyl)-2-(hydroxyamino)-2-oxoethyl]-4′-ethyl-1,1-biphenyl-4-carboxamide], the MIC is below 6.25 µg/mL in assay [1]; below 6.25 µg/mL in assay [2] (setting [8]); below 6.25 µg/mL in assay [3] (setting [9]); 6.25 to 50 µg/mL (≈ 19.1 to 153 µM) in assay [4]; below 6.25 µg/mL in assay [5]; below 6.25 µg/mL in [6]. Besides, the MIC with S. aureus 29213 is above 50 µg/mL; against Serratia marcescens it was 6.25 to 50 µg/mL (≈ 19.1 to 153 µM); in assay [7], below 6.25 µg/mL; against Enterobacter cloacae, below 6.25 µg/mL; against Alcaligenes xylosoxidans, 6.25 to 50 µg/mL (≈ 19.1 to 153 µM).

The values above are taken from patent publication US7358359B2, “Antibacterial agents” (University of Washington, priority 2003, dated 2008).
